What was measured:
[1] = system: Mock cell; experiment: TRPA1 Activation Test 2: intracellular Ca2+ imaging assay 2-2, Mock cell; type: cell-based; conditions: Table 9
Description: A hTRPA1 stably expressing cell line in which expression of hTRPA1 had been induced in advance by a conventional method was prepared in a 96 well clear bottom plate, and the hTRPA1 activating action of rhein (produced by Tokyo Chemical Industry Co., Ltd.) was tested. Specifically, after each well was washed with PBS, 50 μL of an assay buffer (Hanks' balanced salt solution containing no calcium ion or magnesium ion that contained 1 mM of CaCl2 dihydrate, 20 mM of HEPES, and 0.1% BSA) containing calcium fluorescent indicator Calbryte™ 520 AM (produced by AAT Bioquest) in a final concentration of 4 μM was added, followed by incubating at 33° C. for 45 minutes. After washing with the assay buffer, 100 μL of the assay buffer was added to each well. This plate was set to FlexStation 3 (Molecular Devices, LLC), and a fluorescence intensity (excitation wavelength 490 nm, fluorescence wavelength 525 nm) at 31° C. was measured every two seconds, and 30 seconds after the start of the measurement, 100 μL of an assay buffer containing a test sample (allyl isothiocyanate (AITC) of positive control or rhein) which was prepared to have a certain final concentration or DMSO was added. Then, a well in which an assay buffer containing ionomycin (having a final concentration of 10 μM after the addition) instead of the test samples was added was also prepared as a reference for fluorescence intensity.
The measurement was continued from the start of the measurement up to 120 seconds, and the TRPA1 activation ability of the test samples was calculated in accordance with the following formula.
Activation rate (%)=(Fmax[s]−F0)/(Fmax[i]−F0)×100 • Fmax[s]: The maximum value of the fluorescence intensity when the test sample or positive control was added • F0: The average value of the fluorescence intensity for 20 seconds after the start of the measurement (base line) • Fmax[i]: The maximum value of the fluorescence intensity when ionomycin was added […]

[2] = Anorexia Improving Test 3: cumulative amounts of food ingested of mice, rhein with or without A-967079; type: in vivo; conditions: oral; for Cumulative amounts of food ingested of mice: rhein 100 μmol/kg body weight, A-967079 10 μmol/kg body weight
Description: Male ICR mice were housed in individual cages in which ALPHA-dri (Shepherd Specialty Papers) was laid, and were acclimatized and raised for at least one week or more while a powder feed (CE-2, CLEA Japan, Inc.) was given to the mice by using a powder feeder for mice (SN-950, Shinano Manufacturing Co., Ltd.). Then, for several days before the experiment, handling and oral administration training using a feeding needle (FG4202, Fuchigami Kikai Co., Ltd.) were conducted every day. To 9 week-old mice under ad libitum feeding conditions, a carrier solution (containing 2% of dimethyl sulfoxide and 98% of a 0.5% methyl cellulose solution in volume ratio) or a rhein solution (obtained by dissolving 8.53 mg of rhein in 1 mL of the carrier solution) was orally administered from 9:20 a.m. (10 mL/kg body weight). The dosage of rhein was 300 μmol/kg body weight in terms of molar concentration. Then, a feeder the mass of which had been measured in advance was set in the cage at 9:30 a.m. The masses of the feeder and the feed spilled in the cage 0.5, 1, 2, and 3 hours after the start of the feeding experiment were measured, and the ingested mass (g) at each time was measured (n=6). The ingested mass (g) of each mouse was measured in the same manner as in anorexia improving test 2 (the above item 5) except that 10 mL/kg body weight of a carrier solution, a rhein solution (100 μmol/kg body weight), an A-967079 solution (10 μmol/kg body weight), or a mixed solution of A-967079 and rhein (in 10 μmol/kg body weight and 100 μmol/kg body weight, respectively) was orally administered to the mouse. Results obtained by calculating the cumulative amounts of food ingested and conducting a multiple comparison (multiple t-test) by the Dunn-Bonferroni method are shown in Table 12.

SMILES: O=C(O)c1cc(O)c2c(c1)C(=O)c1cccc(O)c1C2=O [Rhein, rhein]
- Activation rate, Mock ([1]; test sample 100 μM): 3.49 ± 0.0595%
- Activation rate, Mock ([1]; test sample 200 μM): 9.65 ± 0.143%
- Cumulative amounts of food ingested of mice ([2]; 0.5 hour after the administration): 0.21 ± 0.033 g
- Cumulative amounts of food ingested of mice ([2]; 1 hour after the administration): 0.25 ± 0.027 g
- Cumulative amounts of food ingested of mice ([2]; 2 hours after the administration): 0.42 ± 0.020 g
- Cumulative amounts of food ingested of mice ([2]; 3 hours after the administration): 0.49 ± 0.035 g
- Significant increase in the cumulative amounts of food ingested where A-967079 was administered (in words) ([2]; rhein 100 μmol/kg with A-967079 10 μmol/kg): not observed

Source: patent US20250009697A1, “COMPOSITION FOR INCREASING AMOUNT OF FOOD INGESTED AND/OR IMPROVING ANOREXIA, AND COMPOSITION FOR ACTIVATING TRANSIENT RECEPTOR POTENTIAL ANKYRIN 1” (HOUSE FOODS GROUP INC., priority 2021, published 2025)
